In patent publication US20100167335A1, “METHODS FOR DIAGNOSING AND TREATING ALLERGIES” (The Research Foundation of State University of New York, priority 2008, published 2010):

How the values were obtained:
Assay type in all cases: cell-based, human
[1] = system: PBMC from allergic asthmatics infected with C. pneumoniae; test: In vitro IgE release by PBMC cultures infected with C. pneumoniae MOI 0.1, day 10 (Example 3)
Method: (§1) Peripheral blood (15 mL total) was obtained from patients and controls in ethylenediaminotetraacetic (EDTA) tubes. PBMC were isolated from whole blood on Ficoll-Paque (GE Healthcare, Sweden) and then washed in RPMI 1640 with 10% fetal bovine serum (FBS), and resuspended in complete RPMI 1640 (c-RPMI). C-RPMI contained RPMI-1640 Medium HEPES Modification supplemented by L-glutamine 5 mM and 10% FBS. Cells were counted and cell viability evaluated with trypan blue dye using a hemocytometer. PBMC (1.5×10^6/mL) were cultured in duplicate in 24 flat bottom well plates (1 ml/well) for up to 12 days in absolute humidification and 5% CO2. Cell viability at 0, 48 and 240 hours was >95%. Following a 2 h incubation to allow adherance PBMC cultures were infected or stimulated in the presence or absence of doxycycline. Doxycycline was reconstituted in a 1× sterile Dulbecco's Phosphate Buffered Saline (PBS).
(§2) PBMC were infected by adding purified EB at a multiplicity of infection (MOI) of 0.01-5 for 1 hour, followed by further incubation in the presence or absence of doxycycline, at 0.01, 0.1, 1.0 μg/mL, for 2 and 10 days p.i. at 37.0° C. in complete medium in a humidified 5% CO2 atmosphere. The time points 2 d (for cytokines) and 10 d p.i. […] Adherent cells were stained with monoclonal genus specific antibodies to confirm and quantify infection with C. pneumoniae at 72 h post infection. Identical volumes of inactivated C. pneumoniae were added in some experiments. C. pneumoniae was inactivated by incubation in a 56° C. water bath for 30 minutes. […]
Doxycycline at a concentration of 1 μg/ml was added to PBMC cultures after one hour incubation with C. pneumoniae MOI of 0.1. […] In FIG. 5, the data is expressed as percent control (PBMC day 10 p.i.); the mean change was 48% decrease; p=0.043. In FIG. 6, the data is expressed as mean IgE±SD (ng/ml) in cultures with the following conditions: uninfected cells (Naïve); Cpn MOI=0.1; Cpn MOI=0.1 and doxycycline […]; Cpn MOI of 1.0 and heat inactivated Cpn.

[2] = system: IL-4 in PBMC culture from serum IgE+ allergic asthmatics; test: IL-4 release by PBMC cultures infected with C. pneumoniae MOI 0.1 (Example 3)
Method: as §1, §2
(§3) In order to characterize the contribution of different T lymphocyte subpopulations to in vitro IgE production, cytokine concentration in infected and uninfected PBMC cultures were analyzed and determined. […]
(§4) To determine the effect of doxycycline on cytokine release by PBMC, doxycycline (0.01-1.0 ng/ml) was added to culture following infection with C. pneumoniae (MOI=0.1). […] In FIG. 8, the data is expressed as a percent control (PBMC day 10 p.i.), 100% is the mean highest response to Cpn; *P<0.05 for doxycycline treated cultures versus no doxycycline.

[3] = system: IFN-γ in PBMC culture from serum IgE+ allergic asthmatics; test: IFN-γ release by PBMC cultures infected with C. pneumoniae MOI 0.1 (Example 3); conditions: for IFN-γ level, mean % change: p=NS
Method: as §1, §2, §3, §4

Compound: C[C@H]1c2cccc(O)c2C(=O)C2=C(O)[C@]3(O)C(=O)C(C(N)=O)=C(O)[C@@H](N(C)C)[C@@H]3[C@@H](O)[C@@H]21 [doxycycline]
- mean change of IgE response, decrease (FIG. 5, percent control) ([1]; FIG. 5, individual subjects n=5, PBMC day 10 p.i., Cpn MOI=0.1, p=0.043): 48%
- suppression of IgE responses (average) ([1]; doxycycline 1 μg/ml added after 1 h incubation with C. pneumoniae MOI 0.1, day 10, p=0.043): 42%
- IgE in PBMC culture ([1]; doxycycline 1 μg/ml, C. pneumoniae MOI 0.1, day 10, versus 5.9±6.0 ng/ml without doxycycline): 3.4 ± 3.9 ng/mL
- IL-4 level, mean % decrease ([2]; doxycycline 1 ng/ml, day 2 (48 h), p=0.018): 30±14%
- IL-4 level, mean % change ([2]; doxycycline 0.01 μg/ml, p=0.018): −45±33%
- IL-4 level, mean % change ([2]; doxycycline 0.1 μg/ml, p<0.05): −60±13%
- IFN-γ level, mean % decrease ([3]; doxycycline 1 ng/ml, day 2 (48 h), p=0.043): 43±27%
- IFN-γ level, mean % change ([3]; doxycycline 0.01 μg/ml): 5%±11
- IFN-γ level, mean % change ([3]; doxycycline 0.1 μg/ml): −1%±18
